Measured values published in publication PMC11574061, “Experimental and computational studies on possibility of using glucose diazacrown cryptand as a carrier for anticancer drugs busulfan and lomustine” (Scientific Reports, 2024).
Converted amounts (≈) assume the structure as drawn. Read-outs that look alike come from different tables or passages of the source.

What was measured:
[1] = tested on: normal breast epithelial cells MCF-10 A; assay: MTT cytotoxicity assay, MCF-10 A; type: cell-based, human; conditions: 72 h
Experimental: (§1) Breast cancer cells MCF-7, colon cancer cells HT-29, normal breast epithelial cells MCF-10 A and normal colon fibroblasts CCD-18Co were used as a cell model for testing the effect of compounds on the viability of cells. The cells were seeded in Dulbecco’s Modified Eagle Medium (DMEM) medium in 96-well plates and incubated for 24 h in a 5% CO2 atmosphere at 37 °C. MCF-10 A cells were grown in a medium supplemented with 0.4% bovine pituitary extract (BPE), 3 ng ml^− 1 hEGF, 5 µg ml^− 1 insulin, 0.5 µg ml^− 1 hydrocortisone and 100ng mL^− 1 cholera toxin. After that, cells were treated with different concentrations: 2.5, 10, 25, 50, 100, and 200 µM, of compounds for 72 h. Busulfan and lomustine were freshly dissolved in DMSO immediately before cell treatment. The solution of other compounds (lyophilized) were prepared in 30% DMSO. Then, a series of dilutions were prepared. The final concentrations of drugs, cryptand and complexes were in range 2.5–200 µM. The final concentration of DMSO diluted in culture medium was 0.2% for all experiments. The controls (without drugs) were treated with 0.2% DMSO. In this concentration DMSO was not cytotoxic for cells which was confirmed by preliminary experiments. The viability of cells treated with the tested compounds was assessed by measuring the ability of live cells to metabolize 3-(4,5-dimethylthiazolo-2-yl)-2,5-diphenyl tetrazolium bromide (MTT) to formazan, using a standard protocol. Briefly, after incubation with compounds, the medium of each well was discarded, cells were washed with PBS, and then 100 µL of fresh media with 10 µL MTT solution (5 mg mL^− 1 in PBS) was added to each well. After 4 h incubation at 37 °C, the produced formazan was solubilized by the addition of DMSO, and the absorbance of each well was determined at 570 nm using an ELISA reader. The results were expressed as the mean of at least four replicates as a percentage of control (taken as 100% - cells).

[2] = tested on: breast cancer cells MCF-7; assay: MTT cytotoxicity assay, MCF-7; type: cell-based, human
Experimental: as §1

[3] = tested on: normal colon fibroblasts CCD-18Co; assay: MTT cytotoxicity assay, CCD-18Co; type: cell-based, human; conditions: 72 h
Experimental: as §1

[4] = Approximate water solubility, stepwise addition of water; type: physicochemical; conditions: thermodynamic from solid; in water; estimated approximately, 1 mg substance, water added in 0.1 ml portions until clear
Experimental: The complexes were prepared according to the procedure described in a previous publication for the complex of another cryptand with BSF[7]. A solution of 2.5 mg (0.01 mmol) BSF in 0.25 ml DMSO was added under argon to a solution of 9.8 mg (0.01 mmol) cryptand 9 (L1) in 12.5 ml water at room temperature. […] The water solubility of the pure cryptand L1, both drugs and their complexes was estimated approximately using a simple method. For each compound separately, 1 mg of the substance was placed in a vial and water was added to it in portions of 0.1 ml. After each addition, the mixture was stirred for 10 min, and the clarity of the solution was checked with a magnifying glass. Stirring was stopped when the solution became completely clear.

colon cancer cells HT-29 = assay: MTT cytotoxicity assay, HT-29; type: cell-based, human
Experimental: as §1

[5] = Homo sapiens, MCF-10A, read-out: IC50
[6] = MCF-10 A normal breast cells, MTT, 2.5–200 µM, mean ± SD, – = IC50 not reached in the range used
[7] = Homo sapiens, MCF7, 72 h, read-out: IC50
[8] = MCF-7 breast cancer cells, 72 h, MTT, 2.5–200 µM, mean ± SD, – = IC50 not reached in the range used
[9] = CCD-18Co normal colon cells, MTT, 2.5–200 µM, mean ± SD, – = IC50 not reached in the range used
[10] = Homo sapiens, CCD-18Co, read-out: IC50
[11] = HT-29 colon cancer cells, 72 h, MTT, 2.5–200 µM, mean ± SD, – = IC50 not reached in the range used
[12] = Homo sapiens, HT-29, 72 h, read-out: IC50

Compound	IC50 [1, 5] [µM]	IC50 [1, 6]	IC50 [2, 7] [µM]	IC50 [2, 8]	IC50 [3, 9]	IC50 [3, 10] [µM]	solubility [4] [µg/mL]	IC50 (colon cancer cells HT-29; [11])	IC50 (colon cancer cells HT-29; [12]) [µM]
CS(=O)(=O)OCCCCOS(C)(=O)=O [BSF, butane-1,4-diyl dimethanesulfonate]	> 200	not achieved	> 200	not achieved	not achieved	> 200	130	not achieved	> 200
O=NN(CCCl)C(=O)NC1CCCCC1 [CCNU, 1-(2-chloroethyl)-3-cyclohexyl-1-nitrosourea]	48.9 ± 5.4	–	8.41 ± 1.6	–	–	56.2 ± 7.8	50 (≈ 0.214 mM)	–	8.91 ± 1.5
O=C1NCC2OC(NC(=O)N3CCOCCOCCN(CCOCCOCC3)C(=O)NC3OC(CNC(=O)N4CCOCCOCCN1CCOCCOCC4)C(O)C(O)C3O)C(O)C(O)C2O (stereo not shown) [L1]	–	had not been reached	–	had not been reached	had not been reached	–	20000 (≈ 20.3 mM)	had not been reached	–
